Literature values as cited in patent publication US20240139123A1, “COMPOSITIONS AND METHODS FOR IMPROVING BRAIN FUNCTION” (Health Via Modern Nutrition Inc., priority 2021, published 2024).

What was measured:
[1] = rats, diet supplemented as 30% of calories
[2] = animal models
NF-κB activation = details: in vitro
[3] = animal and in vitro studies
[4] = Schizophrenia-like rat model
[5] = patient with Alzheimer's disease dementia, 20-month oral administration

For `C[C@@H](O)CCOC(=O)C[C@@H](C)O` [(R)-3-hydroxyburyl (R)-3-hydroxybutyrate], the “cognitive and physical performance” value [1] is listed as “improved cognitive and physical performance”.
For `C=C(C)[C@@H]1CCC(C)=C[C@H]1c1c(O)cc(CCCCC)cc1O` [CBD, cannabidiol], the “anti-anxiety and antidepressant effects” value [2] is listed as “exhibited an anti-anxiety and antidepressant effects”, the NF-κB activation (NF-κB activation) is listed as “inhibits” and the “reactive oxygen species (ROS) production by mitochondria” value (NF-κB activation) is listed as “inhibits”. For the same molecule, the anti-inflammatory properties [3] was “strong anti-inflammatory properties” and the “cognitive impairment and cortical transcriptional changes” value [4] was “improve cognitive impairment and reverse cortical transcriptional changes”.
In the case of `C[C@@H](O)CCOC(=O)C[C@@H](C)O` [ketone monoester], the “mood, affect, self-care, cognitive and daily activity performance” value [5] is listed as “improved markedly in mood, affect, self-care, and cognitive and daily activity performance”.
